According to patent US7160733B2, “Ligand specific to β2-glycoprotein I and use thereof” (priority 2001, dated 2007):

System: J774A.1 cells
Assay: Liposome binding to macrophages (3H-labeled liposomes, 4° C.)
Format: cell-based, murine
Procedure: FIG. 10. Effect of phosphatidylserine (PS) or oxLig-1 content on the binding of liposomes to macrophages. A monolayer of J774.A1 cells was incubated for 2 hours at 4° C. with Celgrosser-P medium containing ^3H-labeled liposomes (50 nmol lipid/well). Open circle represents PS-liposomes; closed circle represents PS-Chol-liposomes; open square represents oxLig-1-liposomes; and closed square represents oxLig-1-Chol-liposomes. Data are indicated as the mean± SD of triplicate samples.
FIG. 11. β2-GPI and anti-β2-GPI monoclonal antibody-dependent binding of ligand-containing liposomes to macrophage. A monolayer of J774.A1 cells was incubated for 2 hours at 4° C. with Celgrosser-P medium containing ^3H-labeled liposomes (50 nmol lipid/well) and WB-CAL-1, in the presence or absence of β2-GPI (200 μg/ml). • A: Binding of PS-liposomes (PS: 50 mol %,) to J774.A1. cells in the presence (closed square) or absence (open square) of β2-GPI (200 μg/ml) • B: Binding of oxLig-1-liposomes (oxLig-1: 40 mol %) to J774.A1 cells in the presence (black bar) or absence (white bar) of β2-GPI (200 μg/ml). • C: A monolayer of J774.A1 cells was incubated for 2 hours at 4° C. with Celgrosser-P medium containing ^3H-labeled synthesized oxLig-1-liposomes (50 nmol lipid/well) and WB-CAL-1, in the presence or absence of β2-GPI (200 μg/ml). Binding of synthesized oxLig-1-liposomes in the absence of β2-GPI and WB-CAL-1 (open circle), binding of synthesized oxLig-1-liposomes in the presence of β2-GPI (open square), binding of synthesized oxLig-1-liposomes in the presence of WB-CAL-1 (closed square), and binding of synthesized oxLig-1-liposomes in the presence of both β2-GPI and WB-CAL-1 (closed circle). Data are indicated as the mean ± SD of triplicate samples.
A monolayer of J774.A1 cells was incubated for 2 hours at 4° C. with Celgrosser-P medium containing [^3H]-labeled liposomes (containing a predetermined ligand, 50 nmol lipid/well). DPPS-containing liposomes (open squares), oxLig-1-containing liposomes (closed squares), oxLig-2-containing liposomes (closed circles), and 13-COOH-7KC-containing liposomes (closed triangles). Data are indicated as mean± SD of triplicate samples.
A monolayer of J774.A1 cells was incubated for 2 hours at 4° C. with Celgrosser-P medium containing [^3H]-labeled liposomes (containing a predetermined ligand (30 mmol %), 50 nmol lipid/well) and in the presence (black bars) or absence (white bars) of β2-GPI (200 μg/mL) and WB-CAL-1 ([…]).
A monolayer culture of murine macrophage-like cells (J774A.1) obtained from Riken Cell Bank (Tsukuba) was maintained in RPMI 1640 medium supplemented with 10% fetal carf serum (FCS). For binding experiments, the cells (8×10^5 cells/mL, RPMI1640) were dispensed in an amount of 1 mL/well into a 12-well culture plate (Sumitomo Bakelite Co., Ltd.) and were incubated for 24 hours at 37° C., then the culture broth was replaced with Celgrosser-P medium (Sumitomo Pharmaceutical Co.). After one hour of preincubation at 37° C., 50 μL of liposomes (50 nmol lipid/well) with or without β2-GPI (200 μg/mL) and WB-CAL-1 (100 μg/mL) were added to each culture, and the cells were incubated at 4° C. and/or 37° C. The wells were next washed with chilled PBS, and the cells were lysed by adding 1 mL of 0.1N NaOH. An aliquot was taken for determination of cellular proteins and of radioactivity associated with the cells. Protein concentration was determined in a manner as described above.

SMILES: CC(C)CCC[C@@H](C)[C@H]1CC[C@H]2[C@@H]3C(=O)C=C4C[C@@H](OC(=O)CCCCCCCC(=O)O)CC[C@]4(C)[C@H]3CC[C@]12C [oxLig-1, 9-oxo-9-(7-ketocholest-5-en-3β-yloxy)nonanoic acid]
- direct binding of liposomes to macrophages (J774A.1 cells, 2 hours at 4° C., 50 nmol lipid/well, without β2-GPI and antibody, result in words): relatively low or negligible small
- uptake of ligand-containing liposomes to J774A.1 cells in the presence of both β2-GPI and WB-CAL-1 (liposomes containing the ligand, compared with cholesteryl linoleate-liposomes (control), FIG. 20, result in words): significantly enhanced
- ligand concentration in liposomes at which binding to macrophages reached almost plateau (synthesized oxLig-1-liposomes, J774A.1 cells): 10 mol %
